Data taken from US10208089B2, “Modulation of complement activity” (priority 2014, dated 2019).
Starred links: 1 amine or outer side, 2 acyl side, 3 side chain; linkers in the order of their positions; H or OH if unused. Positions of bridges follow the written chain, without caps; N, C: chain ends. Non-standard residues stand in square brackets, D forms with d. Residues, ends and D or L forms follow the SMILES beside them. Trp(7-aza) = N[C@@H](Cc1c[nH]c2ncccc12)C(=O)O; mXylylene = c1cc(C[*:1])cc(C[*:2])c1; dPhg = N[C@@H](C(=O)O)c1ccccc1; Chg = N[C@H](C(=O)O)C1CCCCC1; Phg = N[C@H](C(=O)O)c1ccccc1; Tle = CC(C)(C)[C@H](N)C(=O)O; NMeS = CN[C@@H](CO)C(=O)O; Nle = CCCC[C@H](N)C(=O)O; Nva = CCC[C@H](N)C(=O)O; Aib = CC(C)(N)C(=O)O

These molecules were tested against C5 (Homo sapiens, UniProt P01031) (assay: Human hemolysis assay (RBC lysis assay using complete human sera)). Settings: 7-azatryptophan variant polypeptides of R3002; inhibition of red blood cell lysis.
Chain of C5 (P01031 19-1676): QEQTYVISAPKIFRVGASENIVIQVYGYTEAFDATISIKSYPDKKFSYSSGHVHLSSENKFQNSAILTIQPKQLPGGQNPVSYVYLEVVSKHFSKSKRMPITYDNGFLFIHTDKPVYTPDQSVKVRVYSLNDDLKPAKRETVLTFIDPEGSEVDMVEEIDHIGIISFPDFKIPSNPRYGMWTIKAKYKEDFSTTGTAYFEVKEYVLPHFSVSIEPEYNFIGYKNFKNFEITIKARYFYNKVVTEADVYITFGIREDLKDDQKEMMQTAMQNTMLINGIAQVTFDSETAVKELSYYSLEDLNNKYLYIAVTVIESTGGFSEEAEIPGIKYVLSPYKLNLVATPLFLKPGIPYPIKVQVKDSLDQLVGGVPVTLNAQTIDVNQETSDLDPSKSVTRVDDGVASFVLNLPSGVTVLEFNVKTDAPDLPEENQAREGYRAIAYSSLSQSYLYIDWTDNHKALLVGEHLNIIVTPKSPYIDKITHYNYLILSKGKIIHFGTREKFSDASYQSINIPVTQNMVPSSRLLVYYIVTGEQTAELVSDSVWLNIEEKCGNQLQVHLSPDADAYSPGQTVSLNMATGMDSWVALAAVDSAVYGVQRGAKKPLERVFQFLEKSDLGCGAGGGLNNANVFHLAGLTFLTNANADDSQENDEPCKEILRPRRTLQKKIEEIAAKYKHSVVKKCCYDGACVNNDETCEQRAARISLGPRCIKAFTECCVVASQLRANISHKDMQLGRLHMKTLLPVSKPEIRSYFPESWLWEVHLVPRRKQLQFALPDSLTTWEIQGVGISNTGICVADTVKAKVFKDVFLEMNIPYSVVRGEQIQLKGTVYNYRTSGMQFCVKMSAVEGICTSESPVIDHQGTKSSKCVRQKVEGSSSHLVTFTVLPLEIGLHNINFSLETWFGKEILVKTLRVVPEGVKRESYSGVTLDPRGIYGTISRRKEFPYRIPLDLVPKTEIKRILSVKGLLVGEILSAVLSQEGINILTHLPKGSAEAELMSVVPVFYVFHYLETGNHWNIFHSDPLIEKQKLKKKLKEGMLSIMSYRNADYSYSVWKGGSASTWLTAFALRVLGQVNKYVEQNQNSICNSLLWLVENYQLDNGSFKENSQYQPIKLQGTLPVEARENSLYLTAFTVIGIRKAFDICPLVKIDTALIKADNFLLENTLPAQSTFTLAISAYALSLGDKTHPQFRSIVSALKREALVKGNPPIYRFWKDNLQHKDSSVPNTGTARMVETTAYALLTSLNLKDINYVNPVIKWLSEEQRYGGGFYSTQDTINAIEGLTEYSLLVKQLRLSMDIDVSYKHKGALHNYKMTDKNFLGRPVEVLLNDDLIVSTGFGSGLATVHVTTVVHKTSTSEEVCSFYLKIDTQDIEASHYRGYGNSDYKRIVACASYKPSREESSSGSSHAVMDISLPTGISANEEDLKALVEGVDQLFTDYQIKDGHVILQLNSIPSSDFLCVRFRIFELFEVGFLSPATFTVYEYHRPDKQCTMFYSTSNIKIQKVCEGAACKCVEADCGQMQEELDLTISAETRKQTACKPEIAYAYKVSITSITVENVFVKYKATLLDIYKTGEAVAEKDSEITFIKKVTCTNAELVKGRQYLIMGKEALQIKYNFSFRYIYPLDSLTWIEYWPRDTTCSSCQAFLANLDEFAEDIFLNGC
Assay type: cell-based
Parameters: with complete human sera (Complement Technology, Tyler Tex.) and polypeptides; tissue Complement Technology, Tyler Tex; host or cells: complete human serum

Compound	IC50 [µM]
CCC[C@H](NC(C)=O)C(=O)N[C@H]1CSCc2cccc(c2)CSC[C@@H](C(=O)N[C@@H](CCC(=O)O)C(=O)N[C@@H](Cc2ccc(O)cc2)C(=O)N2CCC[C@H]2C(=O)N[C@H](C(=O)N[C@H](C(N)=O)C(C)(C)C)c2ccccc2)NC(=O)[C@H](CCC(=O)O)NC(=O)[C@H](C(C)(C)C)NC(=O)[C@H](CC(N)=O)NC(=O)[C@H](CC(N)=O)NC(=O)[C@H](Cc2ccc(O)cc2)NC1=O [Compound R3129, [mXylyl(2,8)]Ac-Nvl-C-Y-N-N-Tbg-E-C-E-Y-P-Phg-Tbg-NH2] (Ac-[Nva]CYNN[Tle]ECEYP[Phg][Tle]-NH2; linker 2-8 via mXylylene)	> 100

Same assay, conditions: inhibition of lysis of antibody-sensitized sheep erythrocytes, complete human sera

Compound	IC50 [µM]
CCC[C@H](NC(C)=O)C(=O)N[C@@H](CS)C(=O)N[C@@H](Cc1ccc(O)cc1)C(=O)N[C@@H](CCCCN)C(=O)N[C@@H](CC(N)=O)C(=O)N[C@@H](Cc1ccc(O)cc1)C(=O)N[C@@H](Cc1c[nH]cn1)C(=O)N[C@@H](Cc1c[nH]c2ncccc12)C(=O)N[C@@H](CCC(=O)O)C(=O)N[C@@H](Cc1ccc(O)cc1)C(=O)N1CCC[C@H]1C(=O)N[C@H](C(=O)N[C@@H](Cc1ccc(O)cc1)C(N)=O)C(C)(C)C [Compound R3000, Ac-Nvl-C-Y-K-N-Y-H-azaTrp-E-Y-P-Tbg-Y-NH2] (Ac-[Nva]CYKNYH[Trp(7-aza)]EYP[Tle]Y-NH2)	> 10
CCC[C@H](NC(C)=O)C(=O)N[C@@H](CS)C(=O)N[C@@H](Cc1ccc(O)cc1)C(=O)N[C@@H](CC(N)=O)C(=O)N[C@@H](CC(N)=O)C(=O)N[C@H](C(=O)N[C@@H](CCC(=O)O)C(=O)N[C@@H](Cc1c[nH]c2ncccc12)C(=O)N[C@@H](CCC(=O)O)C(=O)N[C@@H](CS)C(=O)N1CCC[C@H]1C(=O)N[C@H](C(=O)N[C@H](C(N)=O)C(C)(C)C)c1ccccc1)C(C)(C)C [Compound R3126, Ac-Nvl-C-Y-N-N-Tbg-E-azaTrp-E-C-P-Phg-Tbg-NH2] (Ac-[Nva]CYNN[Tle]E[Trp(7-aza)]ECP[Phg][Tle]-NH2)	> 3
CCC[C@H](NC(=O)[C@@H]1CSCc2cccc(c2)CSC[C@H](NC(=O)[C@H](CCC(=O)O)NC(=O)[C@H](Cc2ccc(O)cc2)NC(=O)[C@H](CO)NC(=O)[C@H](CCC)NC(C)=O)C(=O)N[C@@H](C(C)(C)C)C(=O)N[C@@H](Cc2ccc(O)cc2)C(=O)N[C@@H](Cc2c[nH]c3ncccc23)C(=O)N[C@@H](CCC(=O)O)C(=O)N[C@@H](Cc2ccc(O)cc2)C(=O)N2CCC[C@H]2C(=O)N[C@@H](C2CCCCC2)C(=O)N1)C(N)=O [Compound R3086, [mXylyl(5,13)]Ac-Nvl-S-Y-E-C-Tbg-Y-azaTrp-E-Y-P-Chg-C-Nvl-NH2] (Ac-[Nva]SYEC[Tle]Y[Trp(7-aza)]EYP[Chg]C[Nva]-NH2; linker 5-13 via mXylylene)	> 50
CCC[C@H](NC(C)=O)C(=O)N[C@H]1CSCc2cccc(c2)CSC[C@@H](C(N)=O)NC(=O)[C@H](Cc2c[nH]cn2)NC(=O)[C@H](CO)N(C)C(=O)[C@H](Cc2ccc(O)cc2)NC(=O)[C@H](CCC(=O)O)NC(=O)[C@H](Cc2c[nH]c3ncccc23)NC(=O)[C@H]([C@@H](C)O)NC(=O)[C@H](c2ccccc2)NC1=O [Compound R3013, [mXyly1(2,10)]Ac-Nvl-C-Phg-T-azaTrp-E-Y-(N-Me)S-H-C-NH2] (Ac-[Nva]C[Phg]T[Trp(7-aza)]EY[NMeS]HC-NH2; linker 2-10 via mXylylene)	0.344
CCC[C@H](NC(=O)[C@H](NC(=O)[C@@H]1CCCN1C(=O)[C@H](Cc1ccc(O)cc1)NC(=O)[C@H](CCC(=O)O)NC(=O)[C@H](Cc1c[nH]c2ncccc12)NC(=O)[C@H](Cc1ccc(O)cc1)NC(=O)[C@@H](NC(=O)[C@H](C)NC(=O)[C@@H]1CSCc2cccc(c2)CSC[C@H](NC(C)=O)C(=O)N[C@@H](C(C)C)C(=O)N[C@@H](CCC(=O)O)C(=O)N[C@@H](CCCNC(=N)N)C(=O)N[C@@H](Cc2ccccc2)C(=O)N1)C(C)(C)C)c1ccccc1)C(N)=O [Compound R3158, [mXylyl(1,6)]Ac-C-V-E-R-F-C-A-Tbg-Y-azaTrp-E-Y-P-(D-Phg)-Nvl-NH2] (Ac-CVERFCA[Tle]Y[Trp(7-aza)]EYP[dPhg][Nva]-NH2; linker 1-6 via mXylylene)	0.327
CCC[C@H](NC(=O)[C@@H]1CSCc2cccc(c2)CSC[C@H](NC(=O)[C@H](CCC)NC(C)=O)C(=O)N[C@@H](Cc2ccccc2)C(=O)N[C@@H]([C@@H](C)O)C(=O)N[C@@H](Cc2c[nH]c3ncccc23)C(=O)N[C@@H](CCC(=O)O)C(=O)N[C@@H](Cc2ccc(O)cc2)C(=O)N(C)[C@@H](CO)C(=O)N[C@@H](C)C(=O)N1)C(N)=O [Compound R3090, [mXyly1(2,10)]Ac-Nvl-C-F-T-azaTrp-E-Y-(N-Me)S-A-C-Nvl-NH2] (Ac-[Nva]CFT[Trp(7-aza)]EY[NMeS]AC[Nva]-NH2; linker 2-10 via mXylylene)	> 100
CCC[C@H](NC(C)=O)C(=O)N[C@H]1CSCc2cccc(c2)CSC[C@@H](C(=O)N[C@@H](CCC(=O)O)C(=O)N[C@@H](Cc2ccc(O)cc2)C(=O)N2CCC[C@H]2C(=O)N[C@H](C(=O)N[C@H](C(N)=O)C(C)(C)C)c2ccccc2)NC(=O)[C@H](CCC(=O)O)NC(=O)[C@H](C(C)(C)C)NC(=O)[C@H](CC(N)=O)NC(=O)[C@H](CC(N)=O)NC(=O)[C@H](Cc2ccc(O)cc2)NC1=O [Compound R3129, [mXylyl(2,8)]Ac-Nvl-C-Y-N-N-Tbg-E-C-E-Y-P-Phg-Tbg-NH2] (Ac-[Nva]CYNN[Tle]ECEYP[Phg][Tle]-NH2; linker 2-8 via mXylylene)	> 100
CCC[C@H](NC(=O)[C@H](NC(=O)[C@@H]1CCCN1C(=O)[C@H](Cc1ccc(O)cc1)NC(=O)[C@H](CCC(=O)O)NC(=O)[C@H](Cc1c[nH]c2ccccc12)NC(=O)[C@H](Cc1ccc(O)cc1)NC(=O)[C@@H](NC(=O)[C@H](CC(=O)O)NC(=O)[C@@H]1CSCc2cccc(c2)CSC[C@H](NC(C)=O)C(=O)N[C@@H](C)C(=O)N[C@@H](CCC(=O)O)C(=O)N[C@@H](CCCNC(=N)N)C(=O)N[C@@H](Cc2ccccc2)C(=O)N1)C(C)(C)C)c1ccccc1)C(N)=O [Compound R3149, [mXylyl(1,6)]Ac-C-A-E-R-F-C-D-Tbg-Y-W-E-Y-P-(D-Phg)-Nvl-NH2] (Ac-CAERFCD[Tle]YWEYP[dPhg][Nva]-NH2; linker 1-6 via mXylylene)	0.0136
CCC[C@H](NC(C)=O)C(=O)N[C@H]1CSCc2cccc(c2)CSC[C@@H](C(=O)N(C)[C@@H](CO)C(=O)N[C@H](C(=O)N[C@@H](CCCCN)C(=O)N[C@@H](Cc2c[nH]c3ncccc23)C(=O)N[C@@H](CCC(=O)O)C(=O)N[C@@H](Cc2ccc(O)cc2)C(N)=O)C(C)(C)C)NC(=O)[C@H](Cc2ccc(O)cc2)NC(=O)[C@H](c2ccccc2)NC(=O)[C@H](CCC(=O)O)NC(=O)[C@H](CCCCN)NC1=O [Compound R3007, [mXylyl(2,7)]Ac-Nvl-C-K-E-Pbg-Y-C-(N-Me)S-Tbg-K-azaTrp-E-Y-NH2] (Ac-[Nva]CKE[Phg]YC[NMeS][Tle]K[Trp(7-aza)]EY-NH2; linker 2-7 via mXylylene)	0.314
CCC[C@H](NC(=O)[C@@H](NC(=O)[C@@H]1CCCN1C(=O)[C@H](Cc1ccc(O)cc1)NC(=O)[C@H](CCC(=O)O)NC(=O)[C@H](Cc1c[nH]c2ncccc12)NC(=O)[C@H](Cc1ccc(O)cc1)NC(=O)[C@@H](NC(=O)[C@H](CC(=O)O)NC(=O)[C@@H]1CSCc2cccc(c2)CSC[C@H](NC(=O)[C@@H](N)CCSC)C(=O)N[C@@H](C(C)C)C(=O)N[C@@H](CCC(=O)O)C(=O)N[C@@H](CCCNC(=N)N)C(=O)N[C@@H](Cc2ccccc2)C(=O)N1)C(C)(C)C)c1ccccc1)C(N)=O [Compound R3057, [mXylyl(2,7)]M-C-V-E-R-F-C-D-Tbg-Y-azaTrp-E-Y-P-Phg-Nvl-NH2] (H-MCVERFCD[Tle]Y[Trp(7-aza)]EYP[Phg][Nva]-NH2; linker 2-7 via mXylylene)	0.0124
CCCC[C@H](NC(C)=O)C(=O)N[C@H]1CSCc2cccc(c2)CSC[C@@H](C(=O)N[C@@H](CCC)C(N)=O)NC(=O)[C@H](Cc2c[nH]cn2)NC(=O)[C@H](CO)N(C)C(=O)[C@H](Cc2ccc(O)cc2)NC(=O)[C@H](CCC(=O)O)NC(=O)[C@H](Cc2c[nH]c3ncccc23)NC(=O)[C@H]([C@@H](C)O)NC(=O)[C@H](c2ccccc2)NC1=O [Compound R3112, [mXyly1(2,10)]Ac-Nle-C-Phg-T-azaTrp-E-Y-(N-Me)S-H-C-Nvl-NH2] (Ac-[Nle]C[Phg]T[Trp(7-aza)]EY[NMeS]HC[Nva]-NH2; linker 2-10 via mXylylene)	> 5
CC(=O)N[C@H]1CSCc2cccc(c2)CSC[C@@H](C(=O)N[C@H](C(=O)N[C@@H](Cc2ccc(O)cc2)C(=O)N[C@@H](Cc2c[nH]c3ccccc23)C(=O)N[C@@H](CCC(=O)O)C(=O)N[C@@H](Cc2ccccc2)C(N)=O)C(C)C)NC(=O)[C@H](Cc2ccccc2)NC(=O)[C@H](CCCNC(=N)N)NC(=O)[C@H](CCC(=O)O)NC(=O)[C@H](C(C)C)NC1=O [Compound R3124, [mXylyl(1,6)]Ac-C-V-E-R-F-C-V-Y-W-E-F-NH2] (Ac-CVERFCVYWEF-NH2; linker 1-6 via mXylylene)	> 100
CC(=O)N[C@H]1CSCc2cccc(c2)CSC[C@@H](C(=O)N[C@@H](CC(=O)O)C(=O)N[C@H](C(=O)N[C@@H](Cc2ccc(O)cc2)C(=O)N[C@@H](Cc2c[nH]c3ccccc23)C(=O)N[C@@H](CCC(=O)O)C(=O)N[C@@H](Cc2ccccc2)C(N)=O)C(C)(C)C)NC(=O)[C@H](Cc2ccccc2)NC(=O)[C@H](CCCNC(=N)N)NC(=O)[C@H](CCC(=O)O)NC(=O)[C@H](C(C)(C)C)NC1=O [Compound R3139, [mXylyl(1,6)]Ac-C-Tbg-E-R-F-C-D-Tbg-Y-W-E-F-NH2] (Ac-C[Tle]ERFCD[Tle]YWEF-NH2; linker 1-6 via mXylylene)	0.0972
CCC[C@H](NC(=O)[C@@H]1CSCc2cccc(c2)CSC[C@H](NC(=O)[C@H](CCC)NC(C)=O)C(=O)N[C@@H](c2ccccc2)C(=O)NC(C)(C)C(=O)N[C@@H](Cc2c[nH]c3ncccc23)C(=O)N[C@@H](CCC(=O)O)C(=O)N[C@@H](Cc2ccc(O)cc2)C(=O)N(C)[C@@H](CO)C(=O)N[C@@H](Cc2c[nH]cn2)C(=O)N1)C(N)=O [Compound R3096, [mXylyl(2,10)]Ac-Nvl-C-Phg-Aib-azaTrp-E-Y-(N-Me)S-H-C-Nvl-NH2] (Ac-[Nva]C[Phg][Aib][Trp(7-aza)]EY[NMeS]HC[Nva]-NH2; linker 2-10 via mXylylene)	> 50
CCC[C@H](NC(=O)[C@@H](NC(=O)[C@@H]1CCCN1C(=O)[C@H](Cc1ccc(O)cc1)NC(=O)[C@H](CCC(=O)O)NC(=O)[C@H](Cc1cn(C)c2ccccc12)NC(=O)[C@H](Cc1ccc(O)cc1)NC(=O)[C@@H](NC(=O)[C@H](CC(N)=O)NC(=O)[C@H](CCC(=O)O)NC(=O)[C@H](Cc1ccc(O)cc1)NC(C)=O)C(C)(C)C)c1ccccc1)C(N)=O [Compound R3110, Ac-Y-E-N-Tbg-Y-(1-Me)W-E-Y-P-Phg-Nvl-NH2]	2.94

Same assay, conditions: variants of R3021, R3002 or R3008

Compound	ability to inhibit red blood cell lysis compared with the parent polypeptide (in words)
CC(=O)N[C@H]1CSCc2cccc(c2)CSC[C@@H](C(=O)N[C@H](C(=O)N[C@@H](Cc2ccc(O)cc2)C(=O)N[C@@H](Cc2c[nH]c3ccccc23)C(=O)N[C@@H](CCC(=O)O)C(=O)N[C@@H](Cc2ccccc2)C(N)=O)C(C)C)NC(=O)[C@H](Cc2ccccc2)NC(=O)[C@H](CCCNC(=N)N)NC(=O)[C@H](CCC(=O)O)NC(=O)[C@H](C(C)C)NC1=O [Compound R3124, [mXylyl(1,6)]Ac-C-V-E-R-F-C-V-Y-W-E-F-NH2] (Ac-CVERFCVYWEF-NH2; linker 1-6 via mXylylene)	decrease in the ability

Same assay, conditions: variants of R3021 with internal amino acid deletions; inhibition of red blood cell lysis

Compound	IC50 [µM]
CC(=O)N[C@H]1CSCc2cccc(c2)CSC[C@@H](C(=O)N[C@H](C(=O)N[C@@H](Cc2ccc(O)cc2)C(=O)N[C@@H](Cc2c[nH]c3ccccc23)C(=O)N[C@@H](CCC(=O)O)C(=O)N[C@@H](Cc2ccccc2)C(N)=O)C(C)C)NC(=O)[C@H](Cc2ccccc2)NC(=O)[C@H](CCCNC(=N)N)NC(=O)[C@H](CCC(=O)O)NC(=O)[C@H](C(C)C)NC1=O [Compound R3124, [mXylyl(1,6)]Ac-C-V-E-R-F-C-V-Y-W-E-F-NH2] (Ac-CVERFCVYWEF-NH2; linker 1-6 via mXylylene)	> 100
